{"source": "patent US20260124244A1", "about": "“MEGAKARYOCYTE DERIVATIVES FOR TREATMENT OF DRY EYE DISEASES” (Stellular Bio, Inc., priority 2023, published 2026)", "key": {"[1]": {"system": "human corneal epithelial (HCE-T) cells", "test": "HCE-T cell proliferation, xCELLigence RTCA cell index", "assay_type": "cell-based", "conditions": "72-hour time course; EGF 30.4 pg/ml to 31.2 ng/ml; MLC lysates 0.025-0.75% (v/v) (high speed centrifugation) or 0.22 μm filtered", "protocol": "Effect of MLC lysate on proliferation of human corneal epithelial (HCE-T) cells was measured. Briefly, HCE-T cells were plated on to E-Plate 96 (Agilent Technologies, Santa Clara, CA) at 2,500 cells per well in minimal KGM-Gold medium (Lonza, Walkersville, MD). Minimal KGM-Gold medium contains all KGM-Gold BulletKit components except for EGF (positive control), MLC lysates, and/or bovine pituitary extract. For negative control vehicle only, phosphate buffer solution (PBS) was used. After 24 hours, cells were treated with indicated concentrations of MLC lysates, EGF (SinoBiological Inc., Beijing, China) or PBS. The E-plate was then returned to the xCELLigence RTCA instrument for data collection for an additional 48 hours. Area under the curve (AUC) of normalized Cell Index was calculated using RTCA Software Pro and then normalized to vehicle. FIG. 10A illustrates results of a 72-hour time course study of effects of EGF on proliferation of HCE-T cells at a concentration ranging from 30.4 pg/ml to 31.2 ng/ml. FIG. 10B is an alternate representation of FIG. 10A showing normalized area under curved of normalized cell index for each concentration. […] FIG. 11A illustrates results of a 72-hour time course study of effects of MLC Lysates processed with high speed centrifugation on the proliferation of HCE-T cells at a dose ranging from 0.025% (v/v) to 0.75% (v/v). […]"}, "[2]": {"system": "rat medial meniscal tear (MMT) model of osteoarthritis (OA)", "test": "Dynamic weight bearing test in rat MMT osteoarthritis model", "assay_type": "in vivo", "conditions": "intraarticular injection on days 7, 14 and 21 after surgery; tested days 7-28", "protocol": "(§1) In vivo effect of MLC lysate and PLC in a subject having osteoarthritis was measured. A rat medial meniscal tear (MMT) model of osteoarthritis (OA) was used in an in vivo study for testing efficacy of megakaryocyte derivatives. […] As described in FIG. 13A, Lewis rats were subjected to meniscal tear surgery on day 0. Dynamic weight bearing and electronic Von Frey Filament analyses were conducted at 7, 14, 21 and 28 days following surgery. Subjects were administered with MLC lysates or PLCs by intraarticular injection after DWB and EVFF analysis on days 7, 14 and 21 following surgery. On day 28 following surgery, serum was collected, and animals were sacrificed to allow for joint histology. PRP and recombinant human FGF-18 were used as positive controls. For negative control vehicle only was used. In sum, the study comprised the following groups: No surgery (n=5), MMT Surgery+Vehicle (n=15), MMT Surgery+Platelet-like cells (n=15), MMT Surgery+Platelet-rich plasma (n=15), MMT Surgery+rFGF-18 (n=15), and MMT Surgery+MLC Lysate (n=15).\n(§2) FIGS. 13B and 13C illustrate efficacy results of MLC lysate and PLC in the rat medial meniscal tear model of osteoarthritis using dynamic weight bearing test and electronic Von Frey Filament test, respectively."}, "[3]": {"system": "rat medial meniscal tear (MMT) model of osteoarthritis (OA)", "test": "Joint histology in rat MMT osteoarthritis model", "assay_type": "in vivo", "conditions": "day 28 after surgery", "protocol": "as §1\nAs outlined in FIG. 13A, a histological analysis of test subjects was performed 28 days following the surgery. […] Additionally, synovitis score wad medial tibial osteophyte measurement was performed based on analysis of histological data."}, "[4]": {"system": "rat medial meniscal tear (MMT) model of osteoarthritis (OA)", "test": "Electronic Von Frey Filament test in rat MMT osteoarthritis model", "assay_type": "in vivo", "conditions": "intraarticular injection on days 7, 14 and 21 after surgery; compared to vehicle", "protocol": "as §1, §2"}}}
{"substance": "EGF: EGF (SinoBiological Inc.) used as positive control for HCE-T proliferation (NSDSECPLSHDGYCLHDGVCMYIEALDKYACNCVVGYIGERCQYRDLKWWELR; Epidermal growth factor; UniProt P01133 971-1023, looked up)", "values": [{"measurement": "proliferation of HCE-T cells (AUC of normalized Cell Index, normalized to vehicle)", "setting": "[1]", "result": "promotes corneal epithelial cell proliferation in a dose-dependent manner"}]}
{"substance": "recombinant human FGF-18: recombinant human FGF-18 used as positive control in the rat MMT model", "values": [{"measurement": "pain profile in dynamic weight bearing testing", "setting": "[2]", "result": "progressive increasing signal over time"}, {"measurement": "medial tibial osteophyte measurement compared to vehicle", "setting": "[3]", "result": "resulted in a significant increase"}, {"measurement": "substantial cartilage degeneration width compared to vehicle", "setting": "[3]", "result": "significant reduction compared to vehicle treatment"}, {"measurement": "synovitis score compared to vehicle", "setting": "[3]", "result": "significant increase in synovitis score"}, {"measurement": "electronic von Frey filament thresholds", "setting": "[4]", "result": "significant decrease in thresholds"}]}
